# From patent US8648068B2, “Heterocycloalkyl-containing thienopyrimidines for pharmaceutical compositions” (Boehringer Ingelheim International GmbH, priority 2010, dated 2014)
# Molecular target: T1, human Mnk2a (Homo sapiens, UniProt Q9HBH9)
# T1 construct: made in house; host or cells: E. coli BL21 (vector pGEX-4T1)
# Assay: Mnk2a in vitro kinase assay (indirect fluorescence polarization)
# Assay type: biochemical
# Conditions: GST-Mnk2a pre-activated with ERK2, 20 μM ATP, 30 μM substrate peptide; read-out: MNK2 IC50
# Protocol: Inhibitory potency of compounds against Mnk1, Mnk2a and other kinases was assessed with assays based on a format known to those skilled in the art as the indirect (competitive) fluorescence polarization. The assay detection system comprises a small fluorophore-labeled phospho-peptide (termed ligand) bound to a phospho-specific antibody. The product generated by the kinase reaction competes with the ligand for antibody binding. Based on the larger molecular volume of the bound ligand, which results in a lower rotation rate in solution, its emitted light has a higher degree of polarization than the one from the free ligand.
# As a source of enzyme, human Mnk1 and human Mnk2a were expressed as GST fusion proteins in E. coli, purified to >80% homogeneity by glutathione affinity chromatography and activated in vitro with pre-activated ERK2. In brief, the open reading frames of human Mnk1 and Mnk2a were amplified from cDNA using the forward/reverse primer pairs
# (utilized restriction sites underlined), respectively, and cloned into the BamHI and SalI sites of the vector pGEX-4T1 (Amersham, Sweden, cat. no. 27-4580-01). These constructs allow prokaryotic expression of Mnk1 or Mnk2a as fusion protein with a N-terminal glutathione S-transferase (GST) tag, referred to as GST-Mnk1 or GST-Mnk2a. The following expression and purification procedure was identical for GST-Mnk1 and GST-Mnk2a, referring in general to GST-Mnk, when not distinguishing between the two isoforms. Expression of GST-Mnk was in E. coli BL21 (Merck Biosciences, Germany, cat. no. 69449). Cells were grown in LB-Bouillon (Merck, Germany, cat. no. 1.10285) supplemented with 100 μg/ml ampicillin (Sigma, Germany, cat. no. A9518) at 37° C. When the culture had reached a density corresponding to an A600 of 0.8, an equal volume of ice cold LB/ampicillin was added, the culture transferred to 25° C. and induced for 4 h with 1 mM isopropyl thiogalactoside (IPTG, Roth, Germany, cat. no. 2316.4). Cells harvested by centrifugation were resuspended in 10 ml lysis buffer (50 mM tris(hydroxymethyl)aminomethane hydrochloride (Tris/HCl, Sigma, Germany, cat. no. T5941) pH 7.5, 300 mM sodium chloride (NaCl, Sigma, Germany, cat. no. S7653), 5% (w/v) glycerol (Sigma, Germany, cat. no. G5516), 3 mM DTT dithiotreitol (DTT, Sigma, Germany, cat. no. D9779)) per gram wet weight cell pellet. Lysates were prepared by disruption of cells with a sonifier and subsequent clearing by centrifugation at 38000 g for 45 min at 4° C.
# The lysate was applied to a GSTPrep FF 16/10 column (Amersham, Sweden, cat. no. 17-5234-01) equilibrated with lysis buffer. Removal of unbound material was with 3 column volumes (CV) lysis buffer. Elution was with 2 CV of elution buffer (50 mM Tris/HCl pH 7.5, 300 mM NaCl, 5% (w/v) glycerol, 20 mM glutathione (Sigma, Germany, cat. no. G4251)). Peak fractions were pooled and the protein transferred into storage buffer (50 mM Tris/HCl pH 7.5, 200 mM NaCl, 0.1 mM ethylene glycol-bis(2-aminoethylether)-N,N,N′,N′-tetraacetic acid (EGTA, Aldrich, Germany, cat. no. 23, 453-2), 1 mM DTT, 10% (w/v) glycerol, 0.5 M sucrose (Sigma, Germany, cat. no. SO389) by gel filtration on a PD10 desalting column (Amersham, Sweden, cat. no. 17-0851-01). Aliquots were shock frozen in liquid nitrogen and stored at −80° C.
# Activation of Mnk1 and Mnk2a was at a concentration of 2.5 μM of either purified GST-Mnk1 or GST-Mnk2a by incubation with 150 nM pre-activated NHis-ERK2 (see ERK2 assay for preparation) and 50 μM adenosine triphosphate (ATP, Sigma, cat. no. A2699) in a buffer comprising 20 mM N-(2-hydroxyethyl)piperazine-N′-(2-ethanesulfonic acid) (HEPES, Fluka, Germany, cat. no 54459)/potassium hydroxide (KOH, Roth, Germany, cat. no 6751.1) pH 7.4, 10 mM magnesium chloride (MgCl2, Sigma, Germany, cat. no. M2670), 0.25 mM DTT, 0.05% (w/v) polyoxyethylene 20 stearylether (Brij 78, Sigma, Germany, cat. no. P4019) (HMDB buffer) for 45 min at 30° C. […]
# T1 sequence (Q9HBH9 whole entry): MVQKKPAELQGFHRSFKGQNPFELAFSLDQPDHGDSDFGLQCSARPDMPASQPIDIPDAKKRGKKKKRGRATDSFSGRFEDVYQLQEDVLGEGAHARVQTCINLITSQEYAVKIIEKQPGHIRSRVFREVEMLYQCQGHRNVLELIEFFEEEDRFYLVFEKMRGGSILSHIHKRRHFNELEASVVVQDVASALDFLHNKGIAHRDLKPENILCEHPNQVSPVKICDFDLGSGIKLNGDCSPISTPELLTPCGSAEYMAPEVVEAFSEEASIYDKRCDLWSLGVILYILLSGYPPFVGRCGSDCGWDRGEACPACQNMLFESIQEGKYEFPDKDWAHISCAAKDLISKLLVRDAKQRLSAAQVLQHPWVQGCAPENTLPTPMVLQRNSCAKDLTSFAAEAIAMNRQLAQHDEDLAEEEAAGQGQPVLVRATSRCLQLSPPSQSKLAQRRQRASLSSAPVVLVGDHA
row,SMILES,IC50
1,Cc1c(C(=O)NCC(C)(C)CN(C)C)sc2ncnc(Nc3ccc(F)cc3OC3CCOCC3)c12 [Example 154],0.215 µM
2,Cc1c(C(=O)NC2(CO)CCCC2)sc2ncnc(Nc3ccc(F)cc3OC3CCOCC3)c12 [Example 225],0.053 µM
3,Cc1c(C(=O)NCC2CN(C)CCO2)sc2ncnc(Nc3ccc(F)cc3OC3CCCNC3)c12 (centres unmarked) [Example 55],0.051 µM
4,Cc1c(C(N)=O)sc2ncnc(Nc3ccc(F)cc3O[C@H]3CCCN(CCC(F)(F)F)C3)c12 [Example 9],0.18 µM
5,Cc1c(C(=O)NCCC2CCCN2C)sc2ncnc(Nc3ccc(F)cc3OC3CCCNC3)c12 (centres unmarked) [Example 53],0.046 µM
6,Cc1c(C(=O)NC2CCN(C)CC2)sc2ncnc(Nc3ccc(F)cc3OC3CCOCC3)c12 [Example 174],0.06 µM
7,Cc1c(C(=O)NCCc2cn[nH]c2O)sc2ncnc(Nc3ccc(F)cc3OC3CCOCC3)c12 [Example 195],0.067 µM
8,Cc1c(C(=O)NC2CCN(C)CC2)sc2ncnc(Nc3ccc(F)cc3OC3CCN(S(C)(=O)=O)C3)c12 (centres unmarked) [Example 91],0.051 µM
9,CCN1CCC[C@@H]1CNC(=O)c1sc2ncnc(Nc3ccc(F)cc3OC3CCCNC3)c2c1C (some centres unmarked) [Example 52],0.13 µM
10,CSCCCNC(=O)c1sc2ncnc(Nc3cccnc3OC3CCOCC3)c2c1C [Example 279],0.077 µM
11,"Cc1ccc(Nc2ncnc3sc(C(N)=O)c(C)c23)c(O[C@H]2CCCNC2)c1 [Example 68, 4-[4-Methyl-2-((S)-piperidin-3-yloxy)-phenylamino]-5-methyl-thieno[2,3-d]pyrimidine-6-carboxylic acid amide]",0.08 µM
12,Cc1c(C(=O)NCC(c2cccnc2)N(C)C)sc2ncnc(Nc3ccc(F)cc3OC3CCCNC3)c12 (centres unmarked) [Example 62],0.11 µM
13,Cc1c(C(=O)NCC2CCCO2)sc2ncnc(Nc3ccc(F)cc3OC3CCCNC3)c12 (centres unmarked) [Example 25],0.081 µM
14,Cc1cccc(CNC(=O)c2sc3ncnc(Nc4ccc(F)cc4OC4CCCNC4)c3c2C)c1 (centres unmarked) [Example 33],0.056 µM
15,"Cc1c(C(N)=O)sc2ncnc(Nc3ccc(F)cc3O[C@H]3CCCN(CCO)C3)c12 [Example 6, (S)-4-(4-fluoro-2-(1-(2-hydroxyethyl)piperidin-3-yloxy)phenylamino)-5-methylthieno[2,3-d]pyrimidine-6-carboxamide]",0.12 µM
16,Cc1c(C(=O)NCCN2CCCCC2)sc2ncnc(Nc3ccc(F)cc3OC3CCOCC3)c12 [Example 222],0.051 µM
17,Cc1c(C(N)=O)sc2ncnc(Nc3ccc(F)cc3O[C@H]3CCCN(Cc4ncon4)C3)c12 [Example 4],0.11 µM
18,Cc1c(C(=O)NC(CO)CO)sc2ncnc(Nc3ccc(F)cc3OC3CCOCC3)c12 [Example 153],0.113 µM
19,"Cc1c(C(=O)N[C@H]2CCC[C@@H]2O)sc2ncnc(Nc3cccnc3OC3CCOCC3)c12 [Compound 278, 5-Methyl-4-[2-(tetrahydro-pyran-4-yloxy)-pyridin-3-ylamino]-thieno[2,3-d]pyrimidine-6-carboxylic acid ((1S,2S)-2-hydroxy-cyclopentyl)-amide]",0.079 µM
20,"Cc1c(C(N)=O)sc2ncnc(Nc3ccc(C(F)(F)F)cc3O[C@H]3CCCNC3)c12 [Example 65, 5-Methyl-4-[2-((S)-piperidin-3-yloxy)-4-trifluoromethyl-phenylamino]-thieno[2,3-d]pyrimidine-6-carboxylic acid amide]",0.19 µM
21,Cc1c(C(=O)NCCc2ccccn2)sc2ncnc(Nc3ccc(F)cc3OC3CCOCC3)c12 [Example 206],0.043 µM
22,Cc1c(C(=O)NCCN2CCCC2)sc2ncnc(Nc3ccc(F)cc3OC3CCOCC3)c12 [Example 209],0.069 µM
23,Cc1c(C(N)=O)sc2ncnc(Nc3ccc(F)cc3O[C@H]3CCCN(CCC#N)C3)c12 [Example 3],0.12 µM
24,CCN(CC)CCCNC(=O)c1sc2ncnc(Nc3ccc(F)cc3OC3CCOCC3)c2c1C [Example 223],2.29 µM

# Further compounds by falling IC50, results first:
row,IC50,SMILES
1,0.043 µM,Cc1c(C(=O)NCC2CCOCC2)sc2ncnc(Nc3ccc(F)cc3OC3CCOCC3)c12 [Example 172]
2,0.041 µM,Cc1c(C(=O)N[C@H]2C[C@H](N)C2)sc2ncnc(Nc3ccc(F)cc3OC3CCOCC3)c12 [Example 143]
3,0.041 µM,Cc1c(C(=O)NCCc2cccnc2)sc2ncnc(Nc3ccc(F)cc3OC3CCOCC3)c12 [Example 207]
4,0.041 µM,Cc1c(C(=O)NCC(=O)c2ccccc2)sc2ncnc(Nc3ccc(F)cc3OC3CCCNC3)c12 (centres unmarked) [Example 42]
5,0.04 µM,"Cc1c(C(=O)NC2CCCN(C(=O)OC(C)(C)C)CC2)sc2ncnc(Nc3ccc(F)cc3O[C@H]3CCOC3)c12 (stereo partly drawn) [Example 272, 4-[(4-{4-Fluoro-2-[(S)-(tetrahydro-furan-3-yl)oxy]-phenylamino}-5-methyl-thieno[2,3-d]pyrimidine-6-carbonyl)-amino]-azepane-1-carboxylic acid tert-butyl ester]"
6,0.038 µM,Cc1c(C(=O)NCc2ccc3sccc3c2)sc2ncnc(Nc3ccc(F)cc3OC3CCCNC3)c12 (centres unmarked) [Example 61]
7,0.036 µM,"Cc1c(C(N)=O)sc2ncnc(Nc3cccnc3O[C@@H]3CCOC3)c12 [Example 267, 5-Methyl-4-{2-[(R)-(tetrahydro-furan-3-yl)oxy]-pyridin-3-ylamino}-thieno[2,3-d]pyrimidine-6-carboxylic acid amide]"
8,0.033 µM,Cc1c(C(=O)NCc2ccccn2)sc2ncnc(Nc3ccc(F)cc3OC3CCOCC3)c12 [Example 219]
9,0.031 µM,Cc1c(C(=O)NCC(=O)N2CCCC2)sc2ncnc(Nc3ccc(F)cc3OC3CCOCC3)c12 [Example 201]
10,0.031 µM,Cc1c(C(=O)NCCCN2CCOCC2)sc2ncnc(Nc3ccc(F)cc3OC3CCOCC3)c12 [Example 212]
11,0.03 µM,Cc1c(C(=O)NCc2cnco2)sc2ncnc(Nc3ccc(F)cc3OC3CCOCC3)c12 [Example 186]
12,0.03 µM,Cc1c(C(=O)NCc2cc[nH]n2)sc2ncnc(Nc3ccc(F)cc3OC3CCOCC3)c12 [Example 182]
13,0.029 µM,Cc1c(C(=O)NCCO)sc2ncnc(Nc3ccc(F)cc3OC3CCOCC3)c12 [Example 211]
14,0.028 µM,Cc1c(C(=O)NCC2CCCOC2)sc2ncnc(Nc3ccc(F)cc3OC3CCOCC3)c12 (centres unmarked) [Example 197]
15,0.027 µM,Cc1c(C(=O)NCCc2c[nH]cn2)sc2ncnc(Nc3ccc(F)cc3OC3CCOCC3)c12 [Example 233]
16,0.027 µM,Cc1c(C(=O)NCC#N)sc2ncnc(Nc3ccc(F)cc3OC3CCOCC3)c12 [Example 164]
17,0.027 µM,Cc1c(C(=O)NCc2ncco2)sc2ncnc(Nc3ccc(F)cc3OC3CCOCC3)c12 [Example 187]
18,0.022 µM,Cc1c(C(=O)NCc2cn(C)cn2)sc2ncnc(Nc3ccc(F)cc3OC3CCOCC3)c12 [Example 184]
19,0.01 µM,"Cc1c(C(N)=O)sc2ncnc(Nc3ccc(Cl)cc3O[C@H]3CCCNC3)c12 [Example 66, 4-[4-Chloro-2-((S)-piperidin-3-yloxy)-phenylamino]-5-methyl-thieno[2,3-d]pyrimidine-6-carboxylic acid amide]"
20,0.008 µM,"Cc1c(C(N)=O)sc2ncnc(Nc3ccc(F)cc3O[C@@H]3CCCN(CCC#N)C3)c12 [Example 82, 4-{2-[(R)-1-(2-Cyano-ethyl)-piperidin-3-yloxy]-4-fluoro-phenylamino}-5-methyl-thieno[2,3-d]pyrimidine-6-carboxylic acid amide]"
